Consider two compounds from BindingDB's records for doi:10.1021/jm00024a011 (Boehringer Ingelheim Pharmaceuticals, 1995).

In the assay the target is T1, Gag-Pol polyprotein [600-1027,R876K]/[600-1155] (Human immunodeficiency virus 1, UniProt P03366, R876K).
T1 construct: 600-1027; 600-1155
Nature of the assay: HIV-1 RT Assay.

In the case of `O=C1Nc2c(CO)ccnc2N(C2CC2)c2ncccc21`, the concentration for half-maximal inhibition (IC50) (as a rule, the concentration needed to halve the response being measured) (pH 7.8, 22 °C) amounted to 3000 nM.
Compound `Nc1ccc(OCc2ccnc3c2NC(=O)c2cccnc2N3C2CC2)cc1` [7-(4-aminophenoxymethyl)-2-cyclopropyl-2,4,9,15-tetraazatricyclo[9.4.0.0^{3,8}]pentadeca-1(11),3,5,7,12,14-hexaen-10-one] yielded a half-inhibitory concentration (IC50) of 100 nM.
